The subject of test [1] is serotonin (5-HT) uptake [セロトニン(5−HT)の取り込み]. In words: serotonin (5-HT) uptake inhibition. Particulars: rat whole brain preparation, 3H-5-HT 10 nM, 37℃, 5 min. The class given is biochemical.
For test [2], the system named is norepinephrine (NE) uptake [ノルエピネフリン(NE)の取り込み]. In words: norepinephrine (NE) uptake inhibition. The class given is biochemical. The note with it: rat cerebral cortex, 3H-NE as substrate.
Test [3] deals with 45Ca2+ uptake [45Ca2+取り込み]. Put plainly: 45Ca2+ uptake inhibition (veratrine-stimulated). The class given is biochemical. The note with it: 10 μM; rat cerebral cortex crude synaptosomes; veratrine 30 μM; 37℃, 10 min.
Test [4] concerns the target T1, type B monoamine oxidase (MAO-B) [B型モノアミン酸化酵素(MAO−B)] (Rattus norvegicus, UniProt P19643).
T1 sequence (P19643 1-520): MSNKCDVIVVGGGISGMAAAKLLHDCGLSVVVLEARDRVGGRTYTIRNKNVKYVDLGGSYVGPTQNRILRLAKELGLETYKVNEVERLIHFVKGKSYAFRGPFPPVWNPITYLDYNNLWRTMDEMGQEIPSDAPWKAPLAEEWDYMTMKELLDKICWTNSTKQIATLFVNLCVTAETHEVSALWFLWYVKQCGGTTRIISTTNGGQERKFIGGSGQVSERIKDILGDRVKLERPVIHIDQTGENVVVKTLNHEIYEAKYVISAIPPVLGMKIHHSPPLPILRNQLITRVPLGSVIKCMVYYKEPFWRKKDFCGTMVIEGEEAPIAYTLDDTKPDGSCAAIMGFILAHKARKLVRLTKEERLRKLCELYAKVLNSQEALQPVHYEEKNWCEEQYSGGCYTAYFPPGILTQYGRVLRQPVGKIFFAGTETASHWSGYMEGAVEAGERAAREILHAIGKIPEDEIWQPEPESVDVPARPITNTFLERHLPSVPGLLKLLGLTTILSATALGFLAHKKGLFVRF
In words: biochemical.

Where [5] appears, read: MAO-B, rat whole brain homogenate, 14C-phenylethylamine 10 μM, 37℃, 5 min, read-out: IC50.

Like-named read-outs stand apart in the source and are kept apart here.

By IC50 is commonly meant the concentration needed to halve the response being measured. With `COc1ccc2c(c1)CC[C@@]1(CCCCN1CCN1CCN(c3cccc(C(F)(F)F)c3)CC1)C2` [実施例30−2, (S)−(−)−1’−〔2−4−(3−トリフルオロメチルフェニル)ピペラジン−1−イル)エチル〕−3,4−ジヒドロ−6−メトキシスピロ〔ナフタレン−2(1H),2’−ピペリジン〕 2塩酸塩], the values for the IC50 in test [1] and in test [2] were 9.5 nM and 280 nM, respectively.

On to `COc1ccc2c(c1)CCC1(CCCCN1CCCc1ccccc1)C2` (centres unmarked) [実施例5−9, 3,4−ジヒドロ−6−メトキシ−1′−(3−フェニルプロピル)スピロ〔ナフタレン−2(1H),2′−ピペリジン〕 塩酸塩], for which the “% inhibition rate (45Ca uptake)” value in test [3] is recorded as 92%.

As to `COc1ccc2c(c1)CCC1(CCCCN1CCN1CCN(c3cccc(C(F)(F)F)c3)CC1)C2` (centres unmarked) [実施例7−6, 1′−〔2−(4−(3−トリフルオロメチルフェニル)ピペラジン−1−イル)エチル〕−3,4−ジヒドロ−6−メトキシスピロ〔ナフタレン−2(1H),2′−ピペリジン〕 2塩酸塩], the “% inhibition rate (45Ca uptake)” value in test [3] is 106%.

`CCCN1CCCCC12CCc1cc(OCc3ccccc3C#N)ccc1C2` (centres unmarked) [実施例9−20, 6−(2−シアノフェニルメトキシ)−3,4−ジヒドロ−1′−プロピルスピロ〔ナフタレン−2(1H),2′−ピペリジン〕 塩酸塩]: the 50% inhibitory concentration (IC50) stood at 320 nM in test [1] and 54 nM in test [2].

As to `COc1ccc2c(c1)CCC1(CCCCN1CCN1CCC(c3ccccc3)CC1)C2` (centres unmarked) [実施例7−9, 3,4−ジヒドロ−6−メトキシ−1′−〔2−(4−フェニルピペリジン−1−イル)エチル〕スピロ〔ナフタレン−2(1H),2′−ピペリジン〕 2塩酸塩], in test [3], the “% inhibition rate (45Ca uptake)” value came to 109%.

For the molecule `CCCN1CCCCC12CCc1cc(OCc3ccccc3Cl)ccc1C2` (centres unmarked) [実施例9−6, 6−(2−クロロフェニルメトキシ)−3,4−ジヒドロ−1′−プロピルスピロ〔ナフタレン−2(1H),2′−ピペリジン〕 塩酸塩], in test [4] (setting [5]), the IC50 was 2510 nM.

Consider `CCCN1CCCCC12CCc1cc(OCc3cccc(C#N)c3)ccc1C2` (centres unmarked) [実施例9−9, 6−(3−シアノフェニルメトキシ)−3,4−ジヒドロ−1′−プロピルスピロ〔ナフタレン−2(1H),2′−ピペリジン〕 塩酸塩], for which the IC50 in test [1] was 280 nM; in test [2], 62 nM.

As to `CCCN1CCCCC12CCc1cc(OCc3cccc(Cl)c3)ccc1C2` (centres unmarked) [実施例9−7, 6−(3−クロロフェニルメトキシ)−3,4−ジヒドロ−1′−プロピルスピロ〔ナフタレン−2(1H),2′−ピペリジン〕 塩酸塩], the IC50 in test [1] is 700 nM; in test [2], 59 nM; in test [4] (setting [5]) it was 1630 nM.

As to `CCCN1CCCCC12CCc1cc(OCc3ccc(Cl)cc3)ccc1C2` (centres unmarked) [実施例9−8, 6−(4−クロロフェニルメトキシ)−3,4−ジヒドロ−1′−プロピルスピロ〔ナフタレン−2(1H),2′−ピペリジン〕 塩酸塩], the values for the IC50 in test [1] and in test [2] were 180 nM and 35 nM, respectively.

As for `CCCN1CCCCC12CCc1cc(OCCc3ccccc3)ccc1C2` (centres unmarked) [実施例9−16, 3,4−ジヒドロ−6−(2−フェニルエトキシ)−1′−プロピルスピロ〔ナフタレン−2(1H),2′−ピペリジン〕 2塩酸塩], the IC50 in test [4] (setting [5]) was 590 nM.

As to `COc1ccc2c(c1)CCC1(CCCCN1CCCC1CCN(Cc3ccccc3)CC1)C2` (centres unmarked) [実施例5−14, 3,4−ジヒドロ−6−メトキシ−1′−〔3−(1−フェニルメチルピペリジン−4−イル)プロピル〕スピロ〔ナフタレン−2(1H),2′−ピペリジン〕 2塩酸塩], the values for the IC50 in test [1] and in test [2] were 11 nM and 180 nM, respectively. Besides, in test [3], the “% inhibition rate (45Ca uptake)” value is 74%.

Take `CCCN1CCCCC12CCc1cc(OCc3ccc(F)cc3)ccc1C2` (centres unmarked) [実施例9−21, 6−(4−フルオロフェニルメトキシ)−3,4−ジヒドロ−1′−プロピルスピロ〔ナフタレン−2(1H),2′−ピペリジン〕 塩酸塩]: the results for the IC50 in test [1], in test [2] and in test [4] (setting [5]) were 340 nM, 97 nM and 680 nM, respectively.

`CCCN1CCCCC12CCc1cc(OCc3ccsc3)ccc1C2` (centres unmarked) [実施例9−45, 3,4−ジヒドロ−1′−プロピル−6−(3−チエニルメトキシ)スピロ〔ナフタレン−2(1H),2′−ピペリジン〕 塩酸塩] had an IC50 in test [4] of 66 nM.

Consider `COc1ccc2c(c1)CCC1(CCCCN1CCCCN1C(=O)c3ccccc3C1=O)C2` (centres unmarked) [実施例5−11, 3,4−ジヒドロ−6−メトキシ−1′−(4−フタルイミドブチル)スピロ〔ナフタレン−2(1H),2′−ピペリジン〕 塩酸塩], for which the IC50 in test [1] was determined as 4.5 nM; in test [2] it was 500 nM.

For `CCCN1CCCCC12CCc1cc(OCc3ccccc3C)ccc1C2` (centres unmarked) [実施例9−18, 3,4−ジヒドロ−6−(2−メチルフェニルメトキシ)−1′−プロピルスピロ〔ナフタレン−2(1H),2′−ピペリジン〕 塩酸塩], in test [4] (setting [5]), the 50% inhibitory concentration (IC50) was determined as 1490 nM.

`NC(=O)CN1CCCCC12CCc1cc(OCc3ccc(F)cc3)ccc1C2` (centres unmarked) [実施例9−32, {6−(4−フルオロフェニルメトキシ−3,4−ジヒドロスピロ〔ナフタレン−2(1H),2′−ピペリジン〕}−1′−イルアセトアミド 塩酸塩]: the IC50 in test [4] (setting [5]) is 530 nM.

In the case of `COc1ccc2c(c1)CCC1(CCCCN1CCN1CCN(c3ccc(F)cc3)CC1)C2` (centres unmarked) [実施例7−5, 1′−〔2−(4−(4−フルオロフェニル)ピペラジン−1−イル)エチル〕−3,4−ジヒドロ−6−メトキシスピロ〔ナフタレン−2(1H),2′−ピペリジン〕 2塩酸塩], the IC50 in test [1] is 30 nM; in test [2], 3350 nM. Also, the “% inhibition rate (45Ca uptake)” value in test [3] is given as 87%.

For `COc1ccc2c(c1)CCC1(CCCCN1CCN1CCN(c3ccccc3Cl)CC1)C2` (centres unmarked) [実施例7−3, 1′−〔2−(4−(2−クロロフェニル)ピペラジン−1−イル)エチル〕−3,4−ジヒドロ−6−メトキシスピロ〔ナフタレン−2(1H),2′−ピペリジン〕 2塩酸塩], the “% inhibition rate (45Ca uptake)” value in test [3] is 95%.

For the molecule `CCCN1CCCCC12CCc1cc(OCc3ccccc3OC)ccc1C2` (centres unmarked) [実施例9−23, 3,4−ジヒドロ−6−(2−メトキシフェニルメトキシ)−1′−プロピルスピロ〔ナフタレン−2(1H),2′−ピペリジン〕 塩酸塩], in test [4] (setting [5]), the IC50 was 2830 nM.

Turning to `COc1ccc2c(c1)CCC1(CCCCN1CCOc1ccccc1)C2` (centres unmarked) [実施例5−10, 3,4−ジヒドロ−6−メトキシ−1′−(2−フェノキシエチル)スピロ〔ナフタレン−2(1H),2′−ピペリジン〕 塩酸塩], the IC50 in test [1] was 9.6 nM; in test [2] it was 830 nM. For the same molecule, the “% inhibition rate (45Ca uptake)” value in test [3] amounted to 88%.

In the case of `COc1cccc(N2CCN(CCN3CCCCC34CCc3cc(OC)ccc3C4)CC2)c1` (centres unmarked) [実施例7−1, 3,4−ジヒドロ−6−メトキシ−1’−〔2−(4−(3−メトキシフェニル)ピペラジン−1−イル)エチル〕スピロ〔ナフタレン−2(1H),2’−ピペリジン〕 2塩酸塩], the half-maximal inhibitory concentration (IC50) in test [1] came out at 22 nM; in test [2], 4770 nM. In test [3], the “% inhibition rate (45Ca uptake)” value amounted to 90%.

As for `CCCN1CCCCC12CCc1cc(OCc3ccccc3F)ccc1C2` (centres unmarked) [実施例9−19, 6−(2−フルオロフェニルメトキシ)−3,4−ジヒドロ−1′−プロピルスピロ〔ナフタレン−2(1H),2′−ピペリジン〕 塩酸塩], the IC50 in test [1] worked out at 800 nM; in test [2], 90 nM; in test [4] (setting [5]), 890 nM.

Regarding `CCCN1CCCCC12CCc1cc(OCc3ccc(Cl)cc3Cl)ccc1C2` (centres unmarked) [実施例9−22, 6−(2,4−ジクロロフェニルメトキシ)−3,4−ジヒドロ−1′−プロピルスピロ〔ナフタレン−2(1H),2′−ピペリジン〕 塩酸塩], the IC50 turned out to be 190 nM in test [1] and 67 nM in test [2].

Take `CCCN1CCCCC12CCc1cc(OCc3ccccc3)ccc1C2` (centres unmarked) [実施例9−1, 3,4−ジヒドロ−6−フェニルメトキシ−1’−プロピルスピロ〔ナフタレン−2(1H),2’−ピペリジン〕 塩酸塩]: the IC50 in test [4] (setting [5]) is 280 nM.

(Values after patent publication JPH07291935A, “スピロ化合物、その製造法および剤” (Takeda Chemical Industries Ltd, priority 1994, dated 1995).)
